Measurements from PubChem BioAssay (NCI).
“And” between values parts separate entries of the source, which are not always exact repeats. Identical values can stand only once.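 Compound exposure: 48 hours, 5 concentrations, 96-well plates. Abbreviation: GI50, concentration required for 50% inhibition of growth. TGI: concentration producing complete growth inhibition.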

Columns and labels:
Assay in all cases: NCI tumour cell line growth inhibition, 48 h
[1] = tested on: EKVX NSCLC
[2] = tested on: HCC-2998 colon
[3] = tested on: UACC-62 melanoma
[4] = tested on: OVCAR-4 ovarian
[5] = tested on: BT-549 breast
[6] = tested on: HT29 colon
[7] = tested on: NCI/ADR-RES ovarian
[8] = tested on: OVCAR-8 ovarian
[9] = tested on: COLO 205 colon
[10] = tested on: MALME-3M melanoma

SMILES	GI50 [1]	TGI [1]	GI50 [2]	TGI [2]	GI50 [3]	TGI [3]	GI50 [4]	TGI [4]	GI50 [5]	TGI [5]	GI50 [6]	TGI [6]	GI50 [7]	TGI [7]	GI50 [8]	TGI [8]	GI50 [9]	TGI [9]	GI50 [10]	TGI [10]
C=CCN=C(N/N=C/c1ccc([N+](=O)[O-])o1)NS(=O)(=O)c1cc(C(=O)Nc2ccccc2)c(Cl)cc1SCC(N)=O	22.9 µM	> 100 µM	20.7 µM	40.6 µM	17.3 µM	33.3 µM	53 µM	> 100 µM	10.4 µM	31.8 µM	40.8 µM	> 100 µM	> 100 µM	> 100 µM	29.6 µM	> 100 µM	6.55 µM	> 100 µM		
OCCCCC#Cc1ccccc1C#Cc1ccc(C(F)(F)F)cc1	18.4 µM	35.9 µM	17.1 µM	32 µM	16 µM	29.8 µM	11.2 µM	23.9 µM	18 µM	35.1 µM	3.43 µM	18.1 µM	15 µM	30.7 µM	17.4 µM	33.2 µM	17.4 µM	33 µM	19.7 µM	35.5 µM
Nc1ncnc2c1nc(Cl)n2C1OC(CO)C(O)C1O (centres undefined)		> 71.1 µM				> 100 µM		> 100 µM		> 100 µM		> 83 µM		> 100 µM		> 100 µM		> 100 µM		> 100 µM
COc1cc(/C=C2\C(=O)N(C)c3ccccc32)cc(OC)c1OC	24.3 µM	> 100 µM	19 µM	44.4 µM	12 µM	32.1 µM	18.6 µM	> 100 µM	33.4 µM	> 100 µM	14.7 µM	> 100 µM	13.7 µM	56.7 µM	22.7 µM	95.2 µM	17.7 µM	> 100 µM	82.7 µM	> 100 µM
COc1ccc(Cc2nc3cc(OC)c(OC)cc3c(=O)[nH]2)cc1	17.3 µM	> 92.5 µM	2.98 µM	17.1 µM	8.74 µM	34.5 µM	25.4 µM	> 100 µM	4.84 µM	29.7 µM	4.73 µM	> 100 µM	12.4 µM	59 µM	13 µM	> 100 µM	2.33 µM	6.93 µM	9.53 µM	30.3 µM
COc1ccc(OCC(O)CN2CCN(c3ccc(Cl)cc3)CC2)cc1 (centres undefined)	9.82 µM	> 100 µM	> 100 µM	> 100 µM	> 100 µM	> 100 µM	> 100 µM	> 100 µM	> 100 µM	> 100 µM	> 100 µM	> 100 µM	> 100 µM	> 100 µM	88.5 µM	> 100 µM	> 100 µM	> 100 µM	59.7 µM	> 100 µM
NC(=O)c1ncn(C2OC(CO)C(O)C2O)c1N (centres undefined)	> 100 µM	> 100 µM	> 100 µM	> 100 µM	> 100 µM	> 100 µM	> 100 µM	> 100 µM	> 100 µM	> 100 µM	> 100 µM	> 100 µM	> 100 µM	> 100 µM	62.2 µM	> 100 µM	> 100 µM	> 100 µM	> 100 µM	> 100 µM
c1cncc(C2ONC3=NCCN32)c1 (centres undefined)	23.2 µM	> 100 µM	27.1 µM	94.5 µM	46.7 µM	> 100 µM	> 100 µM	> 100 µM	22.9 µM	70 µM	35.1 µM	> 100 µM	22.1 µM	80.4 µM	27.4 µM	> 100 µM	27.7 µM	> 100 µM	5.17 µM	91.4 µM
Clc1ccc2c(NCCCN3CCN(c4nc(N5CCOCC5)nc5ccccc45)CC3)ccnc2c1			1.77 µM	3.28 µM	1.9 µM	3.36 µM	1.9 µM	4.64 µM	1.64 µM	3.08 µM	1.62 µM	3.71 µM	2.23 µM	4.73 µM	1.98 µM	4.47 µM	1.66 µM	3.32 µM	1.9 µM	3.49 µM
COc1ccc(/C=C/C(C)=N/OCC(=O)Nc2ccc(Cl)cc2)cc1			3.75 µM	15.8 µM	1.21 µM	6.46 µM	1.97 µM	9.96 µM	2.71 µM	14.4 µM	3.87 µM	18.2 µM	2.9 µM	15.3 µM	3.52 µM	29.5 µM	3.64 µM	14 µM	4.22 µM	23.3 µM
Fc1ccc(-c2nn3c(COc4ccc(Cl)cc4)nnc3s2)cc1Oc1ccccc1	30.8 µM	> 74.2 µM	30.6 µM	92.8 µM	32.4 µM	> 63.4 µM	50.4 µM	> 100 µM	24.8 µM	55.3 µM	> 47.9 µM	> 74.8 µM	30.5 µM	95.5 µM	21.2 µM	66.3 µM	41.8 µM	> 61.8 µM	29 µM	67.4 µM
COc1cc(N(CCC#N)CCC#N)ccc1/C(N=Nc1ccc(C(=O)O)cc1)=N/NC(=O)c1cc(Br)ccc1O	137 µg/mL	> 150 µg/mL	38.3 µg/mL	81.7 µg/mL	149 µg/mL	> 150 µg/mL	30 µg/mL	65.5 µg/mL	> 150 µg/mL	> 150 µg/mL	58.5 µg/mL	> 150 µg/mL	49.4 µg/mL	> 150 µg/mL	50.6 µg/mL	> 150 µg/mL	43.3 µg/mL	140 µg/mL	> 150 µg/mL	> 150 µg/mL
O=C(Nc1ccc(C(F)(F)F)cc1[N+](=O)[O-])c1cccnc1		> 100 µM		> 100 µM		90.8 µM		> 100 µM		> 100 µM				> 100 µM				> 100 µM		8.32 µM
C=C1CC/C=C(\C)CC[C@H](C(=C)C)[C@@H](O)/C=C(/CO)CCC1O (some centres undefined)	60.4 µM	> 100 µM	> 100 µM	> 100 µM	57.3 µM	> 100 µM	> 100 µM	> 100 µM	48.2 µM	> 100 µM	> 100 µM	> 100 µM	> 100 µM	> 100 µM	> 100 µM	> 100 µM	88.2 µM	> 100 µM		
CC1OC(OC2C(O[C@H]3CC[C@@]4(C)C(=CC[C@H]5[C@@H]6C[C@@H]7O[C@]8(CC[C@@H](C)CO8)[C@@H](C)[C@@H]7[C@@]6(C)CC[C@@H]54)C3)OC(CO)C(OC3OC(CO)C(O)C3O)C2O)C(O)C(O)C1O (some centres undefined)	1.05 µM	1.77 µM and 2.23 µM		1.19 µM	0.349 µM	1.5 µM and 1.07 µM	1.08 µM	2.2 µM and 2.26 µM	1.37 µM	1.84 µM and 2.66 µM	1.01 µM	1.62 µM and 2.17 µM	1.19 µM	1.79 µM and 2.44 µM	0.423 µM	1.16 µM and 1.5 µM	0.381 µM	1.24 µM and 1.29 µM	0.324 µM	1.61 µM and 0.891 µM
CCSc1ncc(Br)c(Sc2nc(N)nc3nc[nH]c23)n1	3.4 µM	> 100 µM	2.78 µM	32.2 µM	2.37 µM	20.4 µM	2.29 µM	30.5 µM	4.11 µM	67 µM	5.74 µM	80.3 µM	3.48 µM	> 100 µM	4.54 µM	> 100 µM	15.1 µM	52.6 µM	1.25 µM	34.3 µM
COC(=O)[C@H](Cc1cn(C)cn1)NC(=O)[C@@H](NC(=O)Nc1cc(C(F)(F)F)cc(C(F)(F)F)c1)C(C)C			1.81 µM	3.46 µM	8.58 µM	> 10 µM	4.58 µM	> 10 µM	2.51 µM	7.9 µM	2.23 µM	4.89 µM	> 10 µM	> 10 µM	2.16 µM	5.22 µM	4.94 µM	> 10 µM	> 10 µM	> 10 µM
CCN1CCN(c2nc(NNC(=O)c3ccccc3)nc(N3CCN(C(c4ccccc4)c4ccccc4)CC3)n2)CC1	10.3 µM	30 µM	1.95 µM	4.08 µM	1.96 µM	4.29 µM	5.39 µM	26.1 µM	2.49 µM	7.6 µM	2.95 µM	13.4 µM	3.32 µM	14.3 µM	3.58 µM	19.5 µM	1.9 µM	3.83 µM	1.7 µM	3.48 µM
C=C(Cl)[C@@](Cl)(CBr)CC[C@@H](Br)C(C)(C)Cl		15.1 µM and 7 µM	1.27 µM	3.12 µM and 1.65 µM	4.53 µM	24.5 µM and 3.84 µM	2.29 µM	7.36 µM and 3.15 µM		22.3 µM	1.28 µM	4.48 µM and 0.635 µM	3.05 µM				0.776 µM			42.9 µM
CCN(CC)CCOc1ccc2c(C)c(C(=O)OC)oc2c1C(=O)/C=C/c1ccc(OC)cc1	19.7 µM	36.5 µM	1.86 µM	3.72 µM	2.24 µM	7.75 µM	2.43 µM	6.85 µM	20.6 µM	39.4 µM	1.9 µM	13 µM	2.58 µM	6.53 µM	20.2 µM	40.1 µM	4.03 µM			
NC(N)=N/N=C/c1c(-c2ccncc2)nc2sc(Cl)cn12	21 µM	39.2 µM	3.29 µM	9.36 µM	1.88 µM	4.91 µM	1.57 µM	6.16 µM	10.3 µM	27.8 µM	17.1 µM	> 51.3 µM	35.5 µM	> 100 µM	15.2 µM	36.4 µM	4.21 µM			
Cc1ccc(C2=C(Cl)C(=O)C(c3ccc(C)cc3)=C(Cl)C2=O)cc1		> 100 µM				> 100 µM		> 100 µM		> 100 µM		> 100 µM		> 100 µM		> 100 µM		> 100 µM		> 100 µM
COC(=O)c1ccc2[nH]c(O)c(C(=Nc3ccc(N(C)C(=O)CN4CCN(C)CC4)cc3)c3ccccc3)c2c1	2.98 µM	16.2 µM	3.89 µM	18.2 µM	4.02 µM	13.8 µM	0.956 µM	2.78 µM	1.65 µM	3.28 µM			9.36 µM	36.4 µM	1.61 µM	7.1 µM	0.7 µM	2.45 µM	1.43 µM	2.86 µM
Cc1ccc(S(=O)(=O)N2CCC(C(=O)O)(c3ccccc3)CC2)cc1		> 100 µM				> 100 µM		> 100 µM		> 100 µM		> 100 µM		> 100 µM		> 100 µM		> 100 µM		> 100 µM
Nc1ncc(C2[C@H](CNC(=O)c3cc(Br)c[nH]3)C(CNC(=O)c3cc(Br)c[nH]3)[C@@H]2c2cnc(N)[nH]2)[nH]1 (some centres undefined)	5.56 µM	45.6 µM	> 50 µM	> 50 µM	> 50 µM	> 50 µM	> 50 µM	> 50 µM	6.71 µM	> 50 µM			> 50 µM	> 50 µM	> 50 µM	> 50 µM			> 50 µM	> 50 µM
O=C1CCS/C(=N/S(=O)(=O)c2ccc(N3N=C4c5ccccc5CC4C3c3cccs3)cc2)N1Cc1ccccc1 (centres undefined)	25.7 µM	65.8 µM	17.9 µM	33.2 µM	16.7 µM	32.3 µM	49.3 µM	> 100 µM	26.2 µM	75.2 µM	37 µM	> 100 µM	20.8 µM	40.1 µM	19.2 µM	39.3 µM	36.8 µM	> 100 µM		
N/C(=N\C(N)=N\c1nc2ccccc2s1)c1cnccn1	4.08 µM	> 100 µM			1.74 µM	3.52 µM	3.38 µM	> 100 µM	3.97 µM	96 µM	2.87 µM	> 100 µM	4.28 µM	> 100 µM	3.11 µM	26.5 µM			2.27 µM	5.66 µM
